How the values were obtained:
[1] = biological target: Tyrosinase; test: Tyrosinase-inhibiting activity; type: biochemical, mushroom; details: for IC50: mushroom tyrosinase, tyrosine, pH 6.8, 37° C., 10 minutes, 475 nm, read-out: IC50 (concentration of test compound which inhibits tyrosinase by 50%); for tyrosinase inhibition activity, fold higher than that of kojic acid: relative to kojic acid, in terms of IC50
Description: Tyrosinase, which was extracted from mushroom, was purchased from SIGMA. […] Ethanol and water were used to dilute the test compounds. As a control, 0.9 ml of a 1:1 mixture of ethanol and water was used. […] The test tube was quickly cooled in an ice water bath to stop the reaction, and absorbance was measured at 475 nm. […] IC50, i.e., the concentration of test compound which inhibits tyrosinase by 50% was calculated by serial dilution for each test compound.

[2] = DPPH (diphenylpicrylhydrazyl) radical-scavenging test; details: for IC50: DPPH 100 μM in ethanol, 37° C., 30 minutes, 515 nm, read-out: IC50 (concentration of test compound which scavenges the radical DPPH by 50%)
Description: Harmful radical-scavenging activities of the compounds of Examples 1 and 2 were compared with those of conventional anti-oxidants using a DPPH (diphenylpicrylhydrazyl) radical-scavenging test as follows:
DPPH was dissolved into ethanol to a concentration of 100 μM. A series of dilutions of compounds of Examples 1 and 2, vitamin C, vitamin E or hydroquinone were prepared. Ethanol and water were used to dilute the test compounds. As a control, a 1:1 mixture of ethanol and water was used. The series of dilutions of each test compound were mixed with 1,900 μl of DPPH solution and the dilution solvent was added to 2.0 ml. The resulting mixture was reacted in an incubator at 37° C. for 30 minutes. Absorbance was measured at 515 nm. The radical-scavenging activities of the compounds of Examples 1 and 2 and conventional anti-oxidants were calculated by the following equation: [formula]
IC50, i.e., the concentration of test compound which scavenge the radical, DPPH by 50% was calculated by the serial dilution method for each test compound.

[3] = tested on: human skin; test: human body patch test (skin safety); type: in vivo; details: for number of positive subjects/the number of total subjects: cream with 0.2 wt. % compound, 20 μl plaster, 30 volunteers; for safety to human skin (in words): overall conclusion
Description: In order to examine the safety of the compounds of Examples 1 and 2, a human body patch test was carried out as follows:
The brachium of thirty(30) healthy volunteers (15 females and 15 males) was thoroughly washed with 70% ethanol and applied with a plaster containing 20 μl of a conventional creamy preparation incorporating 0.2 wt. % of one of the compounds of Examples 1 and 2. The plaster was thoroughly bonded to the brachium using an adhesive tape. 48 hours later, the tape and chamber were removed, and the adherent site of the arm was wiped with a gauze to remove any remaining preparation. […] 48 hours later, the site was examined again.
The results are shown in terms of the number of positive subjects/the number of total subjects.

[4] = tested on: tyrosinase; details: prior art statement; cited from earlier work

IC50 [1] [µM] | tyrosinase inhibition activity, fold higher than that of kojic acid [1] [fold] | IC50 [2] [µM] | Compound | number of positive subjects/the number of total subjects ([3]; 48 hours later) | number of positive subjects/the number of total subjects ([3]; 96 hours later) | skin response in patch test (in words) ([3]; after 48 hours) | skin response in patch test (in words) ([3]; after 96 hours) | safety to human skin (in words) [3] | radical-scavenging activity (in words) [2] | inhibition of tyrosinase (in words) [4]
4 | 20 | 70 | COc1cc(C=CC(=O)OCc2cc(=O)c(O)co2)ccc1O [Example 2, 2-(4-hydroxy-3-methoxycinnamoyl) oxymethyl-5-hydroxy-4H-pyran-4-one] | 1/30 | 0/30 | weak positive response | disappeared | safe to human skin | – | –
4 | 20 | 12.3 | O=C(C=Cc1ccc(O)c(O)c1)OCc1cc(=O)c(O)co1 [Example 1, 2-(3,4-dihydroxycinnamoyl)oxymethyl-5-hydroxy-4H-pyran-4-one] | 1/30 | 0/30 | weak positive response | disappeared | safe to human skin | strong activity as a radical scavenger | –
– | – | 34.8 | tocopherol [Vitamin E, reference compound] | – | – | – | – | – | – | –

The next lines start with the compound.

Compound | IC50 [1] [µM] | tyrosinase inhibition activity, fold higher than that of kojic acid [1] [fold] | IC50 [2] [µM] | number of positive subjects/the number of total subjects ([3]; 48 hours later) | number of positive subjects/the number of total subjects ([3]; 96 hours later) | skin response in patch test (in words) ([3]; after 48 hours) | skin response in patch test (in words) ([3]; after 96 hours) | safety to human skin (in words) [3] | radical-scavenging activity (in words) [2] | inhibition of tyrosinase (in words) [4]
O=C1O[C@H]([C@@H](O)CO)C(O)=C1O [Vitamin C, reference compound] | – | – | 29.2 | – | – | – | – | – | – | –
O=c1cc(CO)occ1O [Kojic acid] | – | – | – | – | – | – | – | – | – | strongly inhibits the action of tyrosinase
Oc1ccc(O)cc1 [Hydroquinone, hydroquinone, reference compound] | – | – | 25.4 | – | – | – | – | – | – | –
